# Non-standard residues stand in square brackets, D forms with d. Residues, ends and D or L forms follow the SMILES beside them. N(NBD)Gly = O=C(O)CNc1ccc([N+](=O)[O-])c2nonc12
# What was measured:
# HeLa cells = assay: Internalisation of NBD-labelled peptides, flow cytometry with dithionite quench; type: cell-based, human; conditions: NBD-labelled peptide 10, 40 and 160 μM, 2 h at 37 °C, DMEM 10% FCS, FACS geometric mean fluorescence, dithionite-only background subtracted, average of three independent experiments
# Method: (§1) HeLa or RAW 264.7 cells were cultured at 37 °C, 10% CO2, in Dulbecco's modified Eagle's medium (DMEM) (Invitrogen), containing 10% foetal calf serum (FCS, Harlan), 100 U/ml penicillin and 100 μg/ml streptomycin. Quantification of internalisation of NBD-labelled peptides was carried out according to the procedure described by [Drin et al. (2001)]. Briefly, cells were seeded in six-well plates (5 × 10^5 cells/well) and treated with 0–160 μM of peptide for 2 h at 37 °C. Cells were washed twice in PBS, harvested using a solution of Versene (1:500) (Invitrogen) and re-suspended in 0.5 ml (final volume) of ice-cold PBS. Cells were analysed by flow cytometry using a Becton Dickinson FACS Scan instrument and the geometric mean of fluorescence intensity was considered to represent the amount of cell-associated peptide. Following flow cytometry, 5 μl of freshly prepared dithionite stock solution (1 M Na2S2O4 in 1 M Tris–HCl (pH 10)) was added to cells maintained at 4 °C for 5 min and analysed again with flow cytometry to measure residual fluorescence. Fluorescence from cells treated with dithionite only was subtracted from the fluorescence of cell-associated or internalised peptides to infer background values.
# RAW 264.7 cells [1] = assay: as above; type: cell-based, murine; conditions: increasing concentrations of NBD-labelled peptide, 2 h at 37 °C, DMEM 10% FCS, FACS, average of three independent experiments
# Method: as §1
# RAW 264.7 cells [2] = assay: Cell viability, CellTiter-Glo Luminescent Assay; type: cell-based, murine; conditions: RAW 264.7, 10, 40 and 160 μM peptide, incubation 2, 4, 8 and 18 h
# Text: CellTiter-Glo Luminescent Assay (Promega) was utilised to determine viability of RAW 264.7 cells following treatment with peptides, according to the manufacturer's instructions.
SMILES,"Internalised peptide, mean cell fluorescence after sodium dithionite quencher (HeLa cells)","Internalised peptide, mean cell fluorescence after sodium dithionite quencher (RAW 264.7 cells [1])",Cellular viability (RAW 264.7 cells [2])
CSCC[C@H](NC(=O)[C@H](CCCCN)NC(=O)CNc1ccc([N+](=O)[O-])c2nonc12)C(=O)N[C@@H](C)C(=O)N[C@@H](CC(=O)O)C(=O)N[C@@H](Cc1c[nH]c2ccccc12)C(=O)N[C@@H](Cc1ccccc1)C(=O)N[C@@H](CCCNC(=N)N)C(=O)N[C@@H](CCC(N)=O)C(=O)N[C@H](C(=O)N[C@@H](CC(C)C)C(=O)N[C@@H](CC(C)C)C(=O)N[C@@H](CCCCN)C(=O)N[C@@H](CCCCN)C(=O)N1CCC[C@H]1C(=O)N[C@@H](CCCCN)C(=O)N[C@@H](CCCCN)C(=O)N[C@@H](CCCNC(=N)N)C(=O)N1CCC[C@H]1C(=O)N[C@@H](CC(N)=O)C(=O)N[C@@H](CO)C(=O)N1CCC[C@H]1C(=O)N[C@@H](CCC(=O)O)C(=O)N[C@@H](CO)C(=O)N[C@H](C(N)=O)[C@@H](C)O)[C@@H](C)O [TIRAP] (H-[N(NBD)Gly]KMADWFRQTLLKKPKKRPNSPEST-NH2),cell permeable properties,cell permeable properties,
CSCC[C@H](NC(=O)[C@H](CCCCN)NC(=O)CNc1ccc([N+](=O)[O-])c2nonc12)C(=O)N[C@@H](C)C(=O)N[C@@H](CC(=O)O)C(=O)N[C@@H](Cc1c[nH]c2ccccc12)C(=O)N[C@@H](Cc1ccccc1)C(=O)N[C@@H](CCCNC(=N)N)C(=O)N[C@@H](CCC(N)=O)C(=O)N[C@H](C(=O)N[C@@H](CC(C)C)C(=O)N[C@@H](CC(C)C)C(=O)N[C@@H](C)C(=O)N[C@@H](C)C(=O)N1CCC[C@H]1C(=O)N[C@@H](C)C(=O)N[C@@H](C)C(=O)N[C@@H](C)C(=O)N1CCC[C@H]1C(=O)N[C@@H](CC(N)=O)C(=O)N[C@@H](CO)C(=O)N1CCC[C@H]1C(=O)N[C@@H](CCC(=O)O)C(=O)N[C@@H](CO)C(=O)N[C@H](C(N)=O)[C@@H](C)O)[C@@H](C)O [NBD-TIRAP^Ala] (H-[N(NBD)Gly]KMADWFRQTLLAAPAAAPNSPEST-NH2),substantially less fluorescent,substantially less fluorescent,
"C[C@H](NC(=O)[C@H](C)NC(=O)[C@H](CCC(N)=O)NC(=O)[C@H](C)NC(=O)[C@H](C)NC(=O)[C@H](CCCCN)NC(=O)[C@H](CCCCN)NC(=O)[C@H](CCCNC(=N)N)NC(=O)CNc1ccc([N+](=O)[O-])c2nonc12)C(=O)N[C@@H](C)C(=O)N1CCC[C@H]1C(=O)N1CCC[C@H]1C(=O)N[C@@H](CCC(N)=O)C(N)=O [TAT^Ala, reference compound] (H-[N(NBD)Gly]RKKAAQAAAPPQ-NH2)",very little fluorescence,,
CC[C@H](C)[C@H](NC(=O)[C@H](C)NC(=O)CNC(=O)CNC(=O)[C@@H]1CCCN1C(=O)[C@@H](NC(=O)[C@H](C)NC(=O)[C@H](CC(=O)O)NC(=O)[C@H](CCCNC(=N)N)NC(=O)[C@H](CC(C)C)NC(=O)[C@H](CCC(N)=O)NC(=O)[C@H](CC(C)C)NC(=O)[C@@H](NC(=O)[C@H](CO)NC(=O)[C@H](CCC(=O)O)NC(=O)[C@@H]1CCCN1C(=O)[C@H](CO)NC(=O)[C@H](CC(N)=O)NC(=O)[C@@H]1CCCN1C(=O)[C@H](CCCNC(=N)N)NC(=O)[C@H](CCCCN)NC(=O)[C@H](CCCCN)NC(=O)[C@@H]1CCCN1C(=O)[C@H](CCCCN)NC(=O)[C@H](CCCCN)NC(=O)[C@H](CC(C)C)NC(=O)[C@H](CC(C)C)NC(=O)[C@@H](NC(=O)[C@H](CCC(N)=O)NC(=O)[C@H](CCCNC(=N)N)NC(=O)[C@H](Cc1ccccc1)NC(=O)[C@H](Cc1c[nH]c2ccccc12)NC(=O)[C@H](CC(=O)O)NC(=O)[C@H](C)NC(=O)[C@H](CCSC)NC(=O)[C@H](CCCCN)NC(=O)CN)[C@@H](C)O)[C@@H](C)O)[C@@H](C)O)C(=O)N[C@H](C(=O)N[C@@H](CO)C(N)=O)C(C)C [TBX2] (H-GKMADWFRQTLLKKPKKRPNSPESTLQLRDATPGGAIVS-NH2),,,no significant reduction in cellular viability

# Source: paper PMC2656996, “Functional cell permeable motifs within medically relevant proteins” (Journal of Biotechnology, 2007)
